Laboratory results: patent publication US20260184708A1, “PYRIDAZINONES AND METHODS OF USE THEREOF” (GFB (ABC), LLC, priority 2017, published 2026)

Assays:
TRPC5 [1] = target: T1, TRPC5 (Homo sapiens, UniProt Q9UL62); experiment: TRPC5 Fluorescence Assay - FLIPR format (HEK-TREx hTRPC5, Riluzole stimulation); type: cell-based
T1 construct: expressed in transfected cells; host or cells: HEK 293
T1 sequence (Q9UL62 1-973): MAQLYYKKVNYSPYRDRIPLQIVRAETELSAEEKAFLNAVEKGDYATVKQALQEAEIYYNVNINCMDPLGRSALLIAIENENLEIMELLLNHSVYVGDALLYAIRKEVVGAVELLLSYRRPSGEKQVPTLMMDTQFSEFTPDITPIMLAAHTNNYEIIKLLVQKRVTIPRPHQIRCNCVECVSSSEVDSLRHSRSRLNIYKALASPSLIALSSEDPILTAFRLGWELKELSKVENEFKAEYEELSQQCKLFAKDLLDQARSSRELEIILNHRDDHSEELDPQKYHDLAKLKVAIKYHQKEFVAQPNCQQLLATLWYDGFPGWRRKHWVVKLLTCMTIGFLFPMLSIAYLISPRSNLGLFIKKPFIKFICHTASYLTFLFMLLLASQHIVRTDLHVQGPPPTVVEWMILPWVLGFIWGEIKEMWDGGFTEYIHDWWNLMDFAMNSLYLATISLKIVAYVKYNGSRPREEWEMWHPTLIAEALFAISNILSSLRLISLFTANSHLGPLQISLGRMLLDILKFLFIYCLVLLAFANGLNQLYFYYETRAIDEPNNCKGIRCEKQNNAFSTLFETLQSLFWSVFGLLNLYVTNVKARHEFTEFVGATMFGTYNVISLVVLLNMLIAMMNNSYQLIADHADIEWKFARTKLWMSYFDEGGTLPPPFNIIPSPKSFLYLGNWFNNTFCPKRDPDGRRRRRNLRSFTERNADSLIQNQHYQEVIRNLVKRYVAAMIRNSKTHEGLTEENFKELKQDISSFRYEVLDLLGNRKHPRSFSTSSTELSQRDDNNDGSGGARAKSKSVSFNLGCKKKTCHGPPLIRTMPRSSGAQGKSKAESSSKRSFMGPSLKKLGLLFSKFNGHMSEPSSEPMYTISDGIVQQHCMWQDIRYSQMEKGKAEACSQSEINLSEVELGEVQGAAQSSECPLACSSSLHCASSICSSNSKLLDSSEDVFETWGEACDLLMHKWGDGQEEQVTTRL
Method: • Cell line: ICLN-001633 • Base Cell: HEK • Channel: TRPC5 • Species: Human • Thaw ID: multiple • Passage: multiple
FLIPR Assay Buffer (Earls Balanced Salt Solution (EBSS) was prepared as follows:
Test Agent Preparation: Compounds were made up to, or supplied as, a 10 mM stock solution generally using DMSO as the vehicle. 10-point dose response curves were generated using the Echo-550 acoustic dispenser. Compound source plates were made by serially diluting compound stocks to create 10 mM, 1 mM, and 0.1 mM solutions in DMSO into Echo certified LDV plates. The Echo then serially spotted 100% DMSO stock solutions into source dose response plates to generate a 4-fold dilution scheme. 100% DMSO was added to the spotted dose response plates to bring the final volume to 5 μl. […] of the dose response stock plate was then spotted into pre-incubation and stimulation assay plates. 50 μl of pre-incubation buffer and 100 μl of stimulation buffer was then added to the plates resulting in a final assay test concentration range of 30 μM to 0.0001 μM with a final DMSO concentration of 0.3%.
Experimental Methods: Cells expressing TRPC5 (HEK-TREx hTRPC5) are plated onto 384 well, black PDL-coated microplates and maintained in TRPC5 growth media the day prior to use for experiments. TRPC5 expression is induced by the application of […] tetracycline at the time of plating. Media is removed from the plates and 10 μl of 4 μM of Fluo-4 AM (mixed with equal volume of Pluronic F-127) in EBSS is added to the cells. Cells are incubated at room temperature, protected from light, for 60-90 minutes. After the incubation period, the dye is removed and replaced with 10 μl of EBSS. Cell, pre-incubation and stimulation plates are loaded onto the FLIPR-II and the assay is initiated. The FLIPR measures a 10 second baseline and then adds 10 μl of 2× compounds (or controls). Changes in fluorescence are monitored for an additional 5 minutes. After the 5 minute pre-incubation, 20 μl of 2× Riluzole (with 1× compound or controls) is added to the cell plate. The final Riluzole stimulation concentration in the assay is 30 μM. After the Riluzole addition, changes in fluorescence are monitored for an additional 5 minutes.
Test Agent Effect: Test agent modulation of TRPC5 calcium response was determined as follows. After the Riluzole, fluorescence was monitored for a 5 minute period. The maximum relative fluorescene response (minus the control response of 1 μM of the control inhibitor) was captured and exported from the FLIPR. Test agent effect was calculated as % inhibition using the following formula: % inhibition=((RFU Test Agent−Plate Average RFU REF INHIB)/(Plate Average RFU Control−Plate Average RFU REF INHIB))×100

TRPC5 [2] = target: T1, TRPC5; experiment: TRPC5 automated patch clamp assay (Qpatch), current block after rosiglitazone stimulation; type: cell-based; conditions: Table 3, HEK293 cells overexpressing TRPC5, rosiglitazone stimulation
Outline: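 HEK 293 cells expressing human TRPC5, whole-cell QPatch recording; 1 μM buffered free internal Ca2+, external pH 7.4. Ramps −100 to +100 mV over 300 ms every 10 s from −60 mV holding; channel activated by Rosiglitazone (30 uM) after ≥60 s control. IC50 from Hill fit.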

[3] = Table 7, read-out: TRPC5-FLIPR IC50
[4] = Table 9, read-out: hTRPCS-FLIPR IC50
[5] = 80 mV, read-out: TRPC5_QP_ XC50_80
[6] = 100 mV, read-out: TRPC5_QP_ XC50_100

Compound	IC50 (TRPC5 [1]; [4])	other results
CN(C)C(=O)c1nn(Cc2ccccc2C(F)F)c2c1CN(c1cn[nH]c(=O)c1Cl)CC2	–	IC50 (TRPC5 [1]; [3]): 0.01 to 1000 nM
NC(=O)c1nn(Cc2ccccc2C(F)F)c2c1CN(c1cn[nH]c(=O)c1Cl)CC2	–	IC50 (TRPC5 [1]; [3]): 0.01 to 1000 nM
CN(Cc1ccccc1C(F)(F)F)c1ncnc2c1CCN(c1cn[nH]c(=O)c1Cl)C2	–	IC50 (TRPC5 [1]; [3]): 5000 to 10000 nM
CCCCn1c(Oc2cccc(F)c2)nc2c1CCN(c1cn[nH]c(=O)c1Cl)C2	–	IC50 (TRPC5 [1]; [3]): 1000 to 5000 nM
O=c1[nH]ncc(N2CCc3c(ncnc3Oc3ccccc3C(F)(F)F)C2)c1Cl	–	IC50 (TRPC5 [1]; [3]): 0.01 to 1000 nM
C[C@@H](O)c1ncccc1CN1CCN(c2cn[nH]c(=O)c2Cl)CC1	1000 to 5000 nM	–
CCc1ncccc1NC1CCN(c2cn[nH]c(=O)c2Cl)CC1	5000 to 10000 nM	–
O=c1[nH]ncc(N2CCN(S(=O)(=O)Cc3ccccc3C(F)(F)F)CC2)c1Cl	1000 to 5000 nM	–
CCc1ncccc1[C@@H](CC)N1CCN(c2cn[nH]c(=O)c2Cl)CC1	1000 to 5000 nM	–
CCc1ncccc1[C@H](CC)N1CCN(c2cn[nH]c(=O)c2C#N)CC1	1000 to 5000 nM	–
CCc1ncccc1[C@H](C(C)C)N1CCN(c2cn[nH]c(=O)c2Cl)CC1	1000 to 5000 nM	–
C[C@H](c1ccccc1C(F)(F)F)N1CCN(c2cn[nH]c(=O)c2Cl)CC1=O	1000 to 5000 nM	–
NC(=O)C1(Cc2ccccc2C(F)(F)F)CCN(c2cn[nH]c(=O)c2Cl)CC1	1000 to 5000 nM	–
Cc1ccccc1CN1CCN(c2cn[nH]c(=O)c2Br)C(C)C1 (stereo not drawn) [drawing 647]	–	IC50 (TRPC5 [2]; [5]): 1000 to 5000 nM; IC50 (TRPC5 [2]; [6]): 1000 to 5000 nM
Cc1ccccc1CN1CCN(c2cn[nH]c(=O)c2Br)CC1C (stereo not drawn) [drawing 649]	–	IC50 (TRPC5 [2]; [5]): 10000 to 500000 nM; IC50 (TRPC5 [2]; [6]): 10000 to 500000 nM

Second part, led by results:

IC50 (TRPC5 [1]; [4])	Compound	other results
1000 to 5000 nM	O=C(CN1CCN(c2cn[nH]c(=O)c2Cl)CC1)c1ccccc1C(F)(F)F	–
1000 to 5000 nM	Cc1ccccc1CC1(OC(N)=O)CCN(c2cn[nH]c(=O)c2Cl)CC1	–
0.01 to 1000 nM	C[C@H](O)c1ncccc1CN1CCN(c2cn[nH]c(=O)c2Cl)CC1	–
1000 to 5000 nM	CCc1ncccc1CC1(O)CCN(c2cn[nH]c(=O)c2Cl)CC1	–
0.01 to 1000 nM	CCc1ncccc1[C@@H](C)N1CCN(c2cn[nH]c(=O)c2Cl)CC1	–
0.01 to 1000 nM	CCc1ncccc1[C@@H](CC)N1CCN(c2cn[nH]c(=O)c2C#N)CC1	–
0.01 to 1000 nM	CC[C@@H](c1cccnc1CC(C)C)C1CCN(c2cn[nH]c(=O)c2Cl)CC1	–
0.01 to 1000 nM	CCc1ncccc1[C@@H](C(C)C)N1CCN(c2cn[nH]c(=O)c2Cl)CC1	–
0.01 to 1000 nM	C[C@@H]1CN([C@@H](C)c2ccc(F)cc2C(F)(F)F)C(=O)CN1c1cn[nH]c(=O)c1Cl	–
0.01 to 1000 nM	CC(F)(F)c1ccccc1CC1(O)CCN(c2cn[nH]c(=O)c2Cl)CC1	–
